{"source": "patent US20220096515A1", "about": "“Methods and Formulations for Preventing Neurological or Psychiatric Disorders” (Huntington Medical Research Institutes, priority 2020, published 2022)", "key": {"[1]": {"system": "GABAergic neurons isolated at E18 from Gabrb3^ECKO", "test": "In vitro neuronal migration assay after in vivo NAD+ treatment paradigm", "assay_type": "cell-based, mouse", "settings": "neurons isolated at E18 after in vivo treatment E12-E17", "description": "Isolation and primary culture of neuronal cells: Primary culture of embryonic GABAergic neurons from CD1 telencephalon or after the saline or NAD+ treatment paradigms were performed using established methods. Briefly, embryonic brains were extracted under a stereo microscope and placed into cold PBS. After removal of the pial membrane, the telencephalon was dissected from each embryonic brain. The telencephalon was minced into 1-2 mm slices in cold PBS. Minced telencephalon was treated with 0.1× trypsin/EDTA at 37° C. for 5 min. Trypsin treatment was stopped by adding FBS-DMEM media and DNase I consecutively. […]\nNeuronal migration assay: In preparation for cell migration assays, one well square culture inserts (ibidi GmbH) were placed in the center of a poly-Ornithine/Laminin coated 35 mm dish, to make a small rectangular patch that is labeled outside the dish. […] Neuronal migration was assessed by measuring the distance between the final positions of cells from the border of the rectangular patch was outlined on the first day, using ImageJ software.\nTo test if the prenatal NAD^+ treatment was able to influence GABAergic neuronal migration, an in vitro neuronal migration assay was performed (FIG. 6M), after the in vivo NAD^+ treatment paradigm (E12-E17). […] Images of GFP^+ cells that had entered the dorsal telencephalon at E18 were collected and analyzed. […]"}, "[2]": {"system": "Gabrb3^ECKO telencephalon", "test": "Microarray gene expression profile of MGE and striatal tissue at E18", "assay_type": "in vivo, mouse", "description": "Gene expression profile analysis: RNA samples were prepared from saline-treated Gabrb3^fl/fl, saline-treated Gabrb3^ECKO and NAD^+-treated Gabrb3^ECKO groups from three different brain pools. Total RNA from each of the samples was extracted by using the PicoPure RNA Isolation kit (Arcturus) following the supplier's protocol. Microarray was performed with Mouse Gene 2.0 ST Array (Affymetrix) at the Boston University Microarray & Sequencing Resource, Boston, MA. Mouse Gene 2.0 ST CEL files were normalized to produce gene-level expression values using the implementation of the Robust Multiarray Average (RMA) in the affy package (version 1.36.1) included in the Bioconductor software suite (version 2.11). Principal component analysis (PCA) was analyzed and visualized using Transcriptome Analysis Console 4.0 (Affymetrix). Heatmap visualization and analysis were performed using Morpheus (Broad Institute, Boston, Mass., USA; software.broadinstitute.org/GENE-E/), and ranked by t-test statistics. Violin plot visualization was generated with Z-score using GraphPad Prism v8.0 (GraphPad Software, La Jolla Calif. USA). The gene ontology for gene enrichment study was performed in three GO TERM annotation categories by using the Database for Annotation, Visualization and Integrated Discovery (DAVID) v6.8. Mouse Genome Informatics (MGI) (GO TERM structure categories: cerebral cortex interneuron migration; GABAergic neuron differentiation; interneuron development; MGE derived cells).\nIn this exemplary embodiment, to gain deeper insights into NAD^+ mediated specific actions in the subcortical telencephalon, a micro-dissection of the MGE and striatal tissue from telencephalic slices of saline-treated Gabrb3^fl/fl mice, saline-treated Gabrb3^ECKO mice, and NAD^+-treated Gabrb3^ECKO mice at E18 was performed. RNA was further extracted, and microarray hybridization on Mouse Gene 2.0 ST arrays (Affymetrix) was performed for Subsequent gene expression analysis (FIG. 7A). Principal component analysis (PCA) plots depicted strict clustering of triplicates from the three samples in the 3D PCA table (FIG. 8A). Differentially expressed genes (fold change cut off ≥+/−50%) in the three groups were compared and represented as heat maps (FIGS. 7B-7C). […] Genes were further classified into specific categories that are essential for embryonic forebrain development: angiogenesis, neurogenesis, GABA signaling and GABA transcription related genes, and the top differentially expressed genes in each category are shown (FIGS. 9A-9E). […] Additionally, differential expression of 10 marker genes in angiogenesis and GABAergic neuron categories in saline-treated Gabrb3^fl/fl, saline-treated Gabrb3^ECKO, and NAD^+-treated Gabrb3^ECKO groups were represented as violin plots (FIGS. 7D-7G)."}, "[3]": {"system": "neuronal cells isolated from the E15 CD1 forebrain", "test": "Neuronal cell proliferation and long-distance migration in vitro", "assay_type": "cell-based, mouse", "description": "Isolation and primary culture of neuronal cells: Primary culture of embryonic GABAergic neurons from CD1 telencephalon or after the saline or NAD+ treatment paradigms were performed using established methods. Briefly, embryonic brains were extracted under a stereo microscope and placed into cold PBS. After removal of the pial membrane, the telencephalon was dissected from each embryonic brain. The telencephalon was minced into 1-2 mm slices in cold PBS. Minced telencephalon was treated with 0.1× trypsin/EDTA at 37° C. for 5 min. Trypsin treatment was stopped by adding FBS-DMEM media and DNase I consecutively. Dissociated cells were filtered with a 40 μm cell strainer and finally filtered cells were cultured in poly-D-lysine coated culture dishes with Neurobasal medium (Life technologies) with 1× B-27 (Life technologies) and 1× Glutamax (Life technologies).\nNeuronal migration assay: In preparation for cell migration assays, one well square culture inserts (ibidi GmbH) were placed in the center of a poly-Ornithine/Laminin coated 35 mm dish, to make a small rectangular patch that is labeled outside the dish. Embryonic neurons prepared from the saline and NAD+ treated groups were seeded in the inserts in Neurobasal medium, supplemented with 1× B-27 and 1× Glutamax. After the cells had attached, the inserts were removed to initiate cell migration in all 4 quadrants of the dish. After 24 hours, cells were fixed and labeled with anti-β-Tubulin antibody (1:2000, Biolegend). Neuronal migration was assessed by measuring the distance between the final positions of cells from the border of the rectangular patch was outlined on the first day, using ImageJ software.\nIn one experiment, periventricular endothelial cells were isolated from E15 wildtype (CD1) forebrain and tested the effect of NAD^+ addition in vitro. Exogenous addition of 100 μM NAD^+ was able to initiate significant endothelial cell proliferation within 2 days of culture and a 35 mm culture dish was confluent within 4-6 days (FIGS. 2A-2D). […]"}}, "data": [{"smiles": "NC(=O)c1ccc[n+]([C@@H]2O[C@H](COP(=O)([O-])OP(=O)(O)OC[C@H]3O[C@@H](n4cnc5c(N)ncnc54)[C@H](O)[C@@H]3O)[C@@H](O)[C@H]2O)c1", "note": "[NAD^+]", "values": [{"measurement": "migration of β-Tubulin^+ neurons (cell number and distance)", "setting": "[1]", "result": "migrated robustly"}, {"measurement": "GABA neuronal subtype and development genes downregulated in Gabrb3^ECKO (Calb2, Sst, Calb1, Sirt2, Ascl1, Nr2f2, Bdnf, Arx, Sox2)", "setting": "[2]; E18", "result": "rescued"}, {"measurement": "GABAergic pathway regulatory and axon guidance genes upregulated in Gabrb3^ECKO (Dlx4, Sirt1, Drp2, Foxg1, Daxx, Ablim1, Nrg3)", "setting": "[2]; E18", "result": "restored to normal expression levels"}, {"measurement": "angiogenesis genes downregulated in Gabrb3^ECKO (Fgfr3, Thbs1, Serpinf1, Tbx1, Angpt1, Mdk, Plxdc1, Efna1, Tspan12)", "setting": "[2]; E18", "result": "restored to normal levels"}, {"measurement": "genes related to inflammation (upregulated in saline-treated Gabrb3^ECKO)", "setting": "[2]; E18", "result": "restored to normal levels"}, {"measurement": "vascular/angiogenesis genes upregulated in Gabrb3^ECKO (Fgf6, Flt1, Hand2, Egf, Itgb3, Plg, Epas1, Bai1, Col4a3, Eng)", "setting": "[2]; E18", "result": "restored to normal expression levels"}, {"measurement": "purinergic receptor signaling genes (microarray)", "setting": "[2]; vs saline-treated Gabrb3^ECKO group", "result": "notable change in purinergic receptor signaling genes"}, {"measurement": "gene expression profile (heat map clusters)", "setting": "[2]; vs saline-treated Gabrb3^ECKO, fold change cut off ≥+/−50%", "result": "shift in the gene expression profile"}, {"measurement": "neuronal cell proliferation", "setting": "[3]; NAD^+ addition", "result": "an increase in cell proliferation"}, {"measurement": "long-distance migration of neuronal cells", "setting": "[3]; NAD^+ addition, neurons alone", "result": "increased long-distance migration of neuronal cells"}, {"measurement": "long-distance migration of neuronal cells", "setting": "[3]; neurons seeded on periventricular endothelial cells", "result": "more robust"}]}]}
